Reference: patent US4022900A, “Compositions containing 1,2,3,4-tetrahydroisoquinolines used as hypotensive agents” (Marion Laboratories, Inc., priority 1972, dated 1977)
Where a name gives a salt, the structure may show the parent alone.

Columns and labels:
[1] = tested on: systolic blood pressure of deoxycorticosterone acetate hypertensive rats; assay: Hypotensive activity in DCA/saline hypertensive rats (systolic blood pressure, tail cuff); type: in vivo, rat (male, CD strain); settings: 50 mg/kg intraperitoneal; for Lowering of Blood Pressure in Hypertensive rate in mm's of Hg., 1 hr. / Lowering of Blood Pressure in Hypertensive rate in mm's of Hg., 2 hrs. / Lowering of Blood Pressure in Hypertensive rate in mm's of Hg., 4 hrs. / Lowering of Blood Pressure in Hypertensive rate in mm's of Hg., 24 hrs.: change vs predrug control, six rats; for compounds which appear most active from Table I: qualitative ranking
Experimental: Hypertension was produced in weanling (30-day old) male rats of the CD strain obtained from the Charles River Breeding Laboratories (Wilmington, Mass.) by subcutaneously implanting about the dorsal surface of the neck a pellet of deoxycorticosterone acetate (DCA) containing 10 mg DCA in a mixture of Carbowax 4000 (Union Carbide) and Flexowax C light (Glyco Products). Their drinking water was replaced by a 1% sodium chloride solution, a procedure known to facilitate the development of an experimental hypertension, and they had free access to chow. Systolic blood pressure in the caudal arteries was measured indirectly by a pneumatic pulse transducer and a tail pressure cuff on a Physiograph Four recorder (Narco Bio-Systems, Inc., Houston, Texas) in unanesthetized but restrained rats prewarmed to 40° C., 10-15 minutes prior to the determination. The rats were kept at a temperature of 40° C. for all determinations of systolic pressure in an attempt to minimize variations in blood pressure due to marked changes in arterial tone caused by changes in temperature. Blood pressures were measured at intervals in the DCA-treated rats given saline and in non-treated control rats. After 20 days, the mean systolic pressure in the DCA-treated rats was above 150 mm Hg. Hypertension was regarded as being established in the rats at this stage and they were at intervals, usually beginning with the 30th day after DCA-implant in testing for hypotensive activity. Following a series of control blood pressure readings, a dose of 50 mg/kg of the compound under investigation was administered by intraperitoneal injection either in solution or as a suspension in 1% tragacanth solution to groups of six hypertensive rats. Blood pressures were redetermined at 1, 2, 4 and 24 hour periods following injection. At each interval, the systolic pressure was measured a minimum of five times in each rat and the average value was calculated. Mean values for the group were calculated from the individual average values and compared with their predrug control levels. The statistical significance of the changes produced by the compounds, in the doses employed, was tested by the "t" test as well as by an analysis of variance. The reductions in blood pressure obtained with the indicated representative tetrahydroisoquinoline compounds are shown in Table I. The code number for the compound and the example herein showing its preparation are both given in Table I.
(§1) Additional compounds have been tested. The toxicity data for the additional compounds tested, and their identity, is given in the following Table II while the blood pressure lowering activity of the compounds is given in the following Table III. The heading "Example Number" in the tables refers to the working example herein which discloses the compounds and its preparation. The test procedure used for determining the blood pressure lowering activity of the compounds is the same as that previously set forth herein. However, the figures in Table III are expressed as percentage change in blood pressure, rather than in mm of mercury change in blood pressure, as presented in Table I herein.

[2] = Acute toxicity (LD50) in the mouse; settings: in vivo
Experimental: 5-(3,4,5-trimethoxybenzamido)-2-methyl-1,2,3,4-tetrahydroisoquinoline (M-20) in mice has an LD-50 of about 125 to 250 mg/kg intraperitoneally.
as §1
Approximate Acute Toxicity (24 hrs.)
(a) Suspension in 1% tragacanth
(b) Solution in distilled water
(c) Solubilized with the aid of dilute acid

[3] = tested on: arterial blood pressure of anesthetized dog; assay: Arterial blood pressure in the anesthetized dog; type: in vivo; settings: 5 mg/kg intravenously
femoral artery of a dog = assay: Peripheral vasodilator activity after administration into femoral artery of a dog; type: in vivo; settings: into the femoral artery, compared with papaverine
[4] = Table I, unit, species and route not given

Structure (SMILES) | Lowering of Blood Pressure in Hypertensive rate in mm's of Hg., 1 hr. [1] | Lowering of Blood Pressure in Hypertensive rate in mm's of Hg., 2 hrs. [1] | Lowering of Blood Pressure in Hypertensive rate in mm's of Hg., 4 hrs. [1] | Lowering of Blood Pressure in Hypertensive rate in mm's of Hg., 24 hrs. [1] | LD50 [2, 4] [mg/kg] | LD50 ([2]; ip, mice, intraperitoneally, about) [mg/kg] | arterial blood pressure [3] | peripheral vasodilator activity (femoral artery of a dog) | compounds which appear most active from Table I [1]
COc1cc(C(=O)Nc2cccc3c2CCN(C)C3)cc(OC)c1OC [M-20, 5-(3,4,5-Trimethoxybenzamido)-2-methyl-1,2,3,4-tetrahydroisoquinoline] | -19±3 mm's of Hg | -26±2 mm's of Hg | -15±10 mm's of Hg | -3±2 mm's of Hg | 125 to 250 | 125 to 250 | decreased arterial blood pressure | peripheral vasodilator activity although less than that of papaverine | –
COc1cccc(OC)c1C(=O)Nc1cccc2c1CCN(C)C2 [M-57, 5-(2,6-Dimethoxybenzamido)-2-methyl-1,2,3,4-tetrahydroisoquinoline] | -2±8 mm's of Hg | -7±5 mm's of Hg | -14±10 mm's of Hg | -14±10 mm's of Hg | 250 to 500 | – | – | – | –
COc1cc(C(=O)Nc2ccc3c(c2)CN(C)CC3)cc(OC)c1OC [M-59, 7-(3,4,5-Trimethoxybenzamido)-2-methyl-1,2,3,4-tetrahydroisoquinoline] | -60±7 mm's of Hg | -46±7 mm's of Hg | -34±6 mm's of Hg | -18±7 mm's of Hg | 250 to 500 | – | – | – | most active
CCCN1CCc2c(cccc2NC(=O)c2ccc(OC)c(OC)c2)C1 [M-47, 5-(3,4-Dimethoxybenzamido)-2-n-propyl-1,2,3,4-tetrahydroisoquinoline] | -35±7 mm's of Hg | -46±11 mm's of Hg | -41±8 mm's of Hg | -22±4 mm's of Hg | 250 to 500 | – | – | – | most active
COc1ccc(C(=O)Nc2cccc3c2CCNC3)cc1OC [M-34, 5-(3,4-Dimethoxybenzamido)-1,2,3,4-tetrahydroisoquinoline HCl] | -33±5 mm's of Hg | -28±7 mm's of Hg | -23±4 mm's of Hg | -2±6 mm's of Hg | 500 to 1000 | – | – | – | most active
COc1ccc(C(=O)Nc2cccc3c2CCN(C)C3)cc1 [M-56, 5-(4-Methoxybenzamido)-2-methyl-1,2,3,4-tetrahydroisoquinoline] | -14±5 mm's of Hg | -30±8 mm's of Hg | -19±6 mm's of Hg | -18±4 mm's of Hg | 62 to 125 | – | – | – | –
